# Source: US9125913B2, “Bcl-2-selective apoptosis-inducing agents for the treatment of cancer and immune diseases” (AbbVie Inc., priority 2008, dated 2015)
# System: GST-Bcl-2
# Test: TR-FRET binding assay, Bcl-2
# Conditions: TR-FRET Ki values
# Summary of the method: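 Compounds serially diluted in DMSO from 50 μM (2× starting concentration, 10% DMSO), mixed with GST-tagged protein, F-Bak peptide probe and Tb-labeled antibody, incubated 3 h at room temperature.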
row,Structure (SMILES),Binding selectivity ratio (Bcl-XL Ki/Bcl-2 Ki)
1,"CC1(C)CCC(CN2CCN(c3ccc(C(=O)NS(=O)(=O)c4ccc(NC5CCN(C6CCOCC6)CC5)c([N+](=O)[O-])c4)c(Nc4cccnc4)c3)CC2)=C(c2ccc(Cl)cc2)C1 [EXAMPLE 397, 4-(4-{[2-(4-chlorophenyl)-4,4-dimethylcyclohex-1-en-1-yl]methyl}piperazin-1-yl)-N-({3-nitro-4-[(1-tetrahydro-2H-pyran-4-ylpiperidin-4-yl)amino]phenyl}sulfonyl)-2-(pyridin-3-ylamino)benzamide]",>28730.6285913286
2,"CC1(C)CCC(CN2CCN(c3ccc(C(=O)NS(=O)(=O)c4ccc(NC5CCN(C6CCOCC6)CC5)c([N+](=O)[O-])c4)c(Oc4cccnc4)c3)CC2)=C(c2ccc(Cl)cc2)C1 [EXAMPLE 398, 4-(4-{[2-(4-chlorophenyl)-4,4-dimethylcyclohex-1-en-1-yl]methyl}piperazin-1-yl)-N-({3-nitro-4-[(1-tetrahydro-2H-pyran-4-ylpiperidin-4-yl)amino]phenyl}sulfonyl)-2-(pyridin-3-yloxy)benzamide]",67.69
3,"CC1(C)CCC(CN2CCN(c3ccc(C(=O)NS(=O)(=O)c4ccc(NCC5CCOCC5)c([N+](=O)[O-])c4)c(Oc4cccc5c4CCNC5)c3)CC2)=C(c2ccc(Cl)cc2)C1 [EXAMPLE 399, 4-(4-{[2-(4-chlorophenyl)-4,4-dimethylcyclohex-1-en-1-yl]methyl}piperazin-1-yl)-N-({3-nitro-4-[(tetrahydro-2H-pyran-4-ylmethyl)amino]phenyl}sulfonyl)-2-(1,2,3,4-tetrahydroisoquinolin-5-yloxy)benzamide]",>225764.520763495
4,"CC1(C)CCC(CN2CCN(c3ccc(C(=O)NS(=O)(=O)c4ccc(NCC5CCOCC5)c([N+](=O)[O-])c4)c(Oc4cccc5[nH]ncc45)c3)CC2)=C(c2ccc(Cl)cc2)C1 [EXAMPLE 400, 4-(4-{[2-(4-chlorophenyl)-4,4-dimethylcyclohex-1-en-1-yl]methyl}piperazin-1-yl)-2-(1H-indazol-4-yloxy)-N-({3-nitro-4-[(tetrahydro-2H-pyran-4-ylmethyl)amino]phenyl}sulfonyl)benzamide]",>3643.8
5,"CC1(C)CCC(CN2CCN(c3ccc(C(=O)NS(=O)(=O)c4ccc(NC5CCN(C6CCOCC6)CC5)c([N+](=O)[O-])c4)c(Oc4cccc5[nH]ncc45)c3)CC2)=C(c2ccc(Cl)cc2)C1 [EXAMPLE 401, 4-(4-{[2-(4-chlorophenyl)-4,4-dimethylcyclohex-1-en-1-yl]methyl}piperazin-1-yl)-2-(1H-indazol-4-yloxy)-N-({3-nitro-4-[(1-tetrahydro-2H-pyran-4-ylpiperidin-4-yl)amino]phenyl}sulfonyl)benzamide]",>162.14
6,"CC1(C)CCC(CN2CCN(c3ccc(C(=O)NS(=O)(=O)c4ccc(N[C@H]5CC[C@H](N6CCOCC6)CC5)c([N+](=O)[O-])c4)c(Oc4cccc5[nH]ncc45)c3)CC2)=C(c2ccc(Cl)cc2)C1 [EXAMPLE 402, Trans-4-(4-{[2-(4-chlorophenyl)-4,4-dimethylcyclohex-1-en-1-yl]methyl}piperazin-1-yl)-2-(1H-indazol-4-yloxy)-N-({4-[(4-morpholin-4-ylcyclohexyl)amino]-3-nitrophenyl}sulfonyl)benzamide]",137.4
7,"CC1(C)CCC(CN2CCN(c3ccc(C(=O)NS(=O)(=O)c4cnc(OCC5(F)CCOCC5)c(Cl)c4)c(Oc4cccc5[nH]ncc45)c3)CC2)=C(c2ccc(Cl)cc2)C1 [EXAMPLE 404, N-({5-chloro-6-[(4-fluorotetrahydro-2H-pyran-4-yl)methoxy]pyridin-3-yl}sulfonyl)-4-(4-{[2-(4-chlorophenyl)-4,4-dimethylcyclohex-1-en-1-yl]methyl}piperazin-1-yl)-2-(1H-indazol-4-yloxy)benzamide]",2423
8,"CC1(C)CCC(CN2CCN(c3ccc(C(=O)NS(=O)(=O)c4cnc(OCC5(F)CCOCC5)c(Cl)c4)c(Oc4cccc5[nH]ccc45)c3)CC2)=C(c2ccc(Cl)cc2)C1 [EXAMPLE 405, N-({5-chloro-6-[(4-fluorotetrahydro-2H-pyran-4-yl)methoxy]pyridin-3-yl}sulfonyl)-4-(4-{[2-(4-chlorophenyl)-4,4-dimethylcyclohex-1-en-1-yl]methyl}piperazin-1-yl)-2-(1H-indol-4-yloxy)benzamide]",1395
9,"CC1(C)CCC(CN2CCN(c3ccc(C(=O)NS(=O)(=O)c4ccc(N[C@@H]5CCN(CC(F)F)C5)c([N+](=O)[O-])c4)c(Oc4cccc5[nH]cnc45)c3)CC2)=C(c2ccc(Cl)cc2)C1 [EXAMPLE 407, 2-(1H-benzimidazol-4-yloxy)-4-(4-{[2-(4-chlorophenyl)-4,4-dimethylcyclohex-1-en-1-yl]methyl}piperazin-1-yl)-N-[(4-{[(3R)-1-(2,2-difluoroethyl)pyrrolidin-3-yl]amino}-3-nitrophenyl)sulfonyl]benzamide]",4931
10,"CC1(C)CCC(CN2CCN(c3ccc(C(=O)NS(=O)(=O)c4ccc(NCC5(F)CCOCC5)c([N+](=O)[O-])c4)c(Oc4cccc5[nH]ncc45)c3)CC2)=C(c2ccc(Cl)cc2)C1 [EXAMPLE 409, 4-(4-{[2-(4-chlorophenyl)-4,4-dimethylcyclohex-1-en-1-yl]methyl}piperazin-1-yl)-N-[(4-{[(4-fluorotetrahydro-2H-pyran-4-yl)methyl]amino}-3-nitrophenyl)sulfonyl]-2-(1H-indazol-4-yloxy)benzamide]",1748.5
11,"CC1(C)CCC(CN2CCN(c3ccc(C(=O)NS(=O)(=O)c4ccc(NCC5CN(C6CC6)CCO5)c([N+](=O)[O-])c4)c(Oc4cccc5[nH]ncc45)c3)CC2)=C(c2ccc(Cl)cc2)C1 (stereo not shown) [EXAMPLE 411, 4-(4-{[2-(4-chlorophenyl)-4,4-dimethylcyclohex-1-en-1-yl]methyl}piperazin-1-yl)-N-[(4-{[(4-cyclopropylmorpholin-2-yl)methyl]amino}-3-nitrophenyl)sulfonyl]-2-(1H-indazol-4-yloxy)benzamide]",2352
12,"CC1(C)CCC(CN2CCN(c3ccc(C(=O)NS(=O)(=O)c4ccc(NCC5CCC(F)(F)CC5)c([N+](=O)[O-])c4)c(Oc4cccc5[nH]ncc45)c3)CC2)=C(c2ccc(Cl)cc2)C1 [EXAMPLE 412, 4-(4-{[2-(4-chlorophenyl)-4,4-dimethylcyclohex-1-en-1-yl]methyl}piperazin-1-yl)-N-[(4-{[(4,4-difluorocyclohexyl)methyl]amino}-3-nitrophenyl)sulfonyl]-2-(1H-indazol-4-yloxy)benzamide]",6545
13,"CC1(C)CCC(CN2CCN(c3ccc(C(=O)NS(=O)(=O)c4cnc(NCC5(F)CCOCC5)c(Cl)c4)c(Oc4cccc5[nH]ncc45)c3)CC2)=C(c2ccc(Cl)cc2)C1 [EXAMPLE 413, N-[(5-chloro-6-{[(4-fluorotetrahydro-2H-pyran-4-yl)methyl]amino}pyridin-3-yl)sulfonyl]-4-(4-{[2-(4-chlorophenyl)-4,4-dimethylcyclohex-1-en-1-yl]methyl}piperazin-1-yl)-2-(1H-indazol-4-yloxy)benzamide]",803.8
14,"CC1(C)CCC(CN2CCN(c3ccc(C(=O)NS(=O)(=O)c4ccc(NCC5CN(CC(F)F)CCO5)c([N+](=O)[O-])c4)c(Oc4cccc5[nH]cnc45)c3)CC2)=C(c2ccc(Cl)cc2)C1 (stereo not shown) [EXAMPLE 415, 2-(1H-benzimidazol-4-yloxy)-4-(4-{[2-(4-chlorophenyl)-4,4-dimethylcyclohex-1-en-1-yl]methyl}piperazin-1-yl)-N-{[4-({[4-(2,2-difluoroethyl)morpholin-2-yl]methyl}amino)-3-nitrophenyl]sulfonyl}benzamide]",17326.89211
15,"CC1(C)CCC(CN2CCN(c3ccc(C(=O)NS(=O)(=O)c4ccc(NC5CCN(C6CCOCC6)CC5)c([N+](=O)[O-])c4)c(Oc4cccc5[nH]cnc45)c3)CC2)=C(c2ccc(Cl)cc2)C1 [EXAMPLE 417, 2-(1H-benzimidazol-4-yloxy)-4-(4-{[2-(4-chlorophenyl)-4,4-dimethylcyclohex-1-en-1-yl]methyl}piperazin-1-yl)-N-({3-nitro-4-[(1-tetrahydro-2H-pyran-4-ylpiperidin-4-yl)amino]phenyl}sulfonyl)benzamide]",87.06
16,"CN1CCC(Nc2ccc(S(=O)(=O)NC(=O)c3ccc(N4CCN(CC5=C(c6ccc(Cl)cc6)CC(C)(C)CC5)CC4)cc3Oc3cccc4[nH]cnc34)cc2[N+](=O)[O-])CC1 [EXAMPLE 418, 2-(1H-benzimidazol-4-yloxy)-4-(4-{[2-(4-chlorophenyl)-4,4-dimethylcyclohex-1-en-1-yl]methyl}piperazin-1-yl)-N-({4-[(1-methylpiperidin-4-yl)amino]-3-nitrophenyl}sulfonyl)benzamide]",404.7
17,"CC1(C)CCC(CN2CCN(c3ccc(C(=O)NS(=O)(=O)c4cnc(OCC5(F)CCN(CC#N)CC5)c(Cl)c4)c(Oc4cccc5[nH]ncc45)c3)CC2)=C(c2ccc(Cl)cc2)C1 [EXAMPLE 419, N-[(5-chloro-6-{[1-(cyanomethyl)-4-fluoropiperidin-4-yl]methoxy}pyridin-3-yl)sulfonyl]-4-(4-{[2-(4-chlorophenyl)-4,4-dimethylcyclohex-1-en-1-yl]methyl}piperazin-1-yl)-2-(1H-indazol-4-yloxy)benzamide]",1071
18,"CC1(C)CCC(CN2CCN(c3ccc(C(=O)NS(=O)(=O)c4cnc(OCC5CCOC5)c(Cl)c4)c(Oc4cccc5[nH]ncc45)c3)CC2)=C(c2ccc(Cl)cc2)C1 (stereo not shown) [EXAMPLE 420, 4-(4-{[2-(4-chlorophenyl)-4,4-dimethylcyclohex-1-en-1-yl]methyl}piperazin-1-yl)-N-{[5-chloro-6-(tetrahydrofuran-3-ylmethoxy)pyridin-3-yl]sulfonyl}-2-(1H-indazol-4-yloxy)benzamide]",1153
19,"CC1(C)CCC(CN2CCN(c3ccc(C(=O)NS(=O)(=O)c4cnc(OC[C@H]5CC[C@H](O)CC5)c(Cl)c4)c(Oc4cccc5[nH]ncc45)c3)CC2)=C(c2ccc(Cl)cc2)C1 [EXAMPLE 421, Trans-N-({5-chloro-6-[(4-hydroxycyclohexyl)methoxy]pyridin-3-yl}sulfonyl)-4-(4-{[2-(4-chlorophenyl)-4,4-dimethylcyclohex-1-en-1-yl]methyl}piperazin-1-yl)-2-(1H-indazol-4-yloxy)benzamide]",2090
